Source: patent US20150050371A1, “Extract Formulations of Rhodamnia Cinerea And Uses Thereof” (BIOTROPICS MALAYSIA BERHAD, priority 2012, published 2015)
Marks after values point to notes of the source that are not given here.

Tested on: normal male Wistar rats
Test: Acute Starch Tolerance Test (STT), glycemia after oral wheat starch
Assay type: in vivo, rat
Details: 5 mg/kg oral
Procedure: An acute Starch Tolerance Test (STT) was performed by the administration by oral gavage of a 7.5% purified wheat starch solution at 1.5 g/kg of body weight to normal male Wistar rats. The effect of a concomitantly administered hot water extract formulation from Rhodamnia cinerea leaves (BTP-00167-14; ref. example 1.2) on the glycemic index was measured at different doses orally administered (50 and 200 mg/kg of body weight). The extract formulation BTP-00167-14 was administered by oral route concomitantly with wheat starch solutions. Glycemia was measured before and 15, 30, 60, 90, and 120 min after mixture administration. The positive control group received acarbose at 5 mg/kg of body weight together with the starch. The actual volume administered to each rat was calculated and adjusted based on the most recent body weight of each animal. STT onset was between 12:00 p.m. (noon) and 1:00 p.m. on animals fasted overnight. Blood samples (one drop) were collected via the tail vein for glucose determination using a hand-held glucometer before and 15, 30, 60, 90, and 120 min after starch administration. Seven-week old rats weighing around 135 g were used for the experiment. One day before the test, rats were randomly assigned to the different experimental groups. Delta glycemia values were calculated by subtraction of the pre-STT glycemia values (Time 0). Values represent average (i.e. mean) values.

C[C@H]1O[C@H](O[C@H]2[C@H](O)[C@@H](O)[C@@H](O[C@H]3[C@H](O)[C@@H](O)C(O)O[C@@H]3CO)O[C@@H]2CO)[C@H](O)[C@@H](O)[C@@H]1N[C@H]1C=C(CO)[C@@H](O)[C@H](O)[C@H]1O (stereo partly drawn) [Acrabose, acarbose] was tested, and the “Glycemia 15 min” value (15 min after starch) was 72.4** mg/dL, the “Glycemia 30 min” value (30 min after starch) was 83.7** mg/dL and the “Glycemia 60 min” value (60 min after starch) was 71.7** mg/dL. For the same compound, the “Glycemia 90 min” value (90 min after starch) was 66.0** mg/dL, the “Glycemia 120 min” value (120 min after starch) was 61.9** mg/dL and the “Glycemia 0 min” value (before administration) was 55.0 mg/dL.
